Publication PMC6234764, “First Insights Into Within Host Translocation of the Bacillus cereus Toxin Cereulide Using a Porcine Model” (Frontiers in Microbiology, 2018)

Test: Cereulide in blood, SIDA-MS
Assay type: in vivo, pig
Protocol: A total of four experiments, each including four treated animals and one control pig, was performed to investigate the action of cereulide on piglets after oral intake of cereulide. Pigs were either challenged orally with a single dose (acute trials) or with daily over a period of 7 days (chronic trial) (see Table 1). One hour before cereulide toxin administration blood samples were taken by puncturing the anterior Vena cava and piglets were weighed for calculation of the cereulide concentration (t = 0 h). In the intoxication experiment with 150 μg kg^-1 blood samples were taken 68 h before the experiment to reduce the distress for the animals at the start day of the experiments. Blood-chemical, immunological, and histological analyses of selected organs as well as quantification of cereulide in organs, tissues, urine and feces were carried out as detailed below.
On body weight calculated amounts of cereulide, dissolved in ethanol, were mixed with milk (UHT milk; 3.5% fat), and fed to four piglets. Control piglets were fed with milk supplemented with similar ethanol concentrations as the experimental piglets. The experiment started after the uptake of the whole milk cereulide mixture. The milk was checked for bacterial contamination prior to the experiment.
After oral administration of cereulide, piglets were monitored for unusual behavior and examined physically with special respect on rectal body temperature as well as pulse and respiration rate, every 2–3 h. Blood samples were taken from the Vena cava cranialis. Urine and feces were collected during the whole experiment and stored at -80°C. After the experiment pigs were anaesthetized by intramuscular injection of a bolus of ketamine (10 mg kg^-1) and azaperone (1.3 mg kg^-1). When sedation was deep enough cerebrospinal fluid (liquor) was taken by lumbar puncture. Finally, pigs were euthanized by intracardial injection of T61®. Animals were then necropsied and parts of the following organs, tissues or body fluids were taken for SIDA-MS analysis: liver, lung, heart, kidney, brain, spleen, small and large intestine, lymph nodes, gastric as well as intestinal contents, skeletal muscle, and abdominal and subcutaneous fat. Samples of liver, lung, heart, kidney, brain, spleen, small, and large intestine were collected for histological analysis.
Collected blood samples, urine, feces, tissue and organs were freeze dried and stored at -80°C until analysis. Before extraction, liquid nitrogen was added to frozen samples and they were crushed to a powder using a mortar. […] Finally, samples were membrane filtrated (0.2 μm; PTFE membrane; Phenomenex, Aschaffenburg, Germany) and analyzed by means of LC-MS/MS as described previously ([Bauer et al., 2010]). […]

CC(C)C[C@H]1OC(=O)[C@H](C(C)C)NC(=O)[C@H](C(C)C)OC(=O)[C@@H](C)NC(=O)[C@@H](CC(C)C)OC(=O)[C@H](C(C)C)NC(=O)[C@H](C(C)C)OC(=O)[C@@H](C)NC(=O)[C@@H](CC(C)C)OC(=O)[C@H](C(C)C)NC(=O)[C@H](C(C)C)OC(=O)[C@@H](C)NC1=O [cereulide]
Detectability of cereulide in blood (single oral dose 150 μg kg^-1, after 24–48 h): detectable in three out of four pigs | Highest concentration of cereulide in the blood (single oral dose 150 μg kg^-1, one animal): 45 ng cereulide mL^-1 | Time of first detection in blood (single oral dose 150 μg kg^-1, pig with highest blood levels): 8 h | Maximum cereulide in blood after 24 h (single oral dose 150 μg kg^-1, pig with lowest abdominal fat level, 24 h): 45 ng cereulide mL^-1
